Assay results: ChEMBL document CHEMBL5030526, “Synthesis and Preclinical Validation of Novel Indole Derivatives as a GPR17 Agonist for Glioblastoma Treatment” (J Med Chem, 2021)
Calls of active or inactive are those of the source. The calls are words filed in the database; no cut-off is given here.

How the values were obtained:
[1] = molecular target: T1, Uracil nucleotide/cysteinyl leukotriene receptor (Homo sapiens, UniProt Q13304); assay: Inverse agonist at human GPR17 in human LN-229 cells assessed as intracellular cAMP levels incubated for 2 hrs by cAMP Glo Dynamic assay
[2] = molecular target: T1, Uracil nucleotide/cysteinyl leukotriene receptor; assay: Agonist activity at human GPR17 in human LN-229 cells assessed as decrease in calcium ion levels incubated for 2 hrs by Calcium Fura 2 Dynamic assay
[3] = molecular target: T1, Uracil nucleotide/cysteinyl leukotriene receptor; assay: Inverse agonist at human GPR17 in human SNB-19 cells assessed as intracellular cAMP levels incubated for 2 hrs by cAMP Glo Dynamic assay
[4] = molecular target: T1, Uracil nucleotide/cysteinyl leukotriene receptor; assay: Agonist activity at human GPR17 in human SNB-19 cells assessed as decrease in calcium ion levels incubated for 2 hrs by Calcium Fura 2 Dynamic assay
[5] = test system: SNB-19; assay: Cytotoxicity effect against human SNB-19 cells assessed as cell growth inhibition incubated for 48 hrs by trypan blue exclusion assay; format: functional, cell-based; conditions: SNB-19, 48 h
[6] = test system: LN-229; assay: Cytotoxicity against human LN-229 cells assessed as increase in cell death at 100 uM incubated for 48 hrs by trypan blue exclusion assay; format: functional, cell-based
[7] = test system: LN-229; assay: Cytotoxicity effect against human LN-229 cells assessed as cell growth inhibition incubated for 48 hrs by trypan blue exclusion assay; format: functional, cell-based; conditions: LN-229, 48 h
[8] = test system: LN-229; assay: Cytotoxicity against human LN229 cells assessed as cell growth inhibition at 100 uM incubated for 48 hrs by trypan blue exclusion assay; format: functional; conditions: read-out: GI
[9] = Cytotoxicity against mouse MEF cells assessed as cell growth inhibition at 100 uM incubated for 48 hrs by trypan blue exclusion assay; format: cell-based
[10] = molecular target: T1, Uracil nucleotide/cysteinyl leukotriene receptor; assay: Agonist activity at human GPR17 in human LN-229 cells assessed as decrease in intracellular cAMP levels incubated for 2 hrs by cAMP Glo Dynamic assay
[11] = test system: SNB-19; assay: Cytotoxicity against human SNB-19 cells assessed as cell growth inhibition at 100 uM incubated for 48 hrs by trypan blue exclusion assay; format: functional; conditions: read-out: GI

T1 sequence (Q13304 whole entry): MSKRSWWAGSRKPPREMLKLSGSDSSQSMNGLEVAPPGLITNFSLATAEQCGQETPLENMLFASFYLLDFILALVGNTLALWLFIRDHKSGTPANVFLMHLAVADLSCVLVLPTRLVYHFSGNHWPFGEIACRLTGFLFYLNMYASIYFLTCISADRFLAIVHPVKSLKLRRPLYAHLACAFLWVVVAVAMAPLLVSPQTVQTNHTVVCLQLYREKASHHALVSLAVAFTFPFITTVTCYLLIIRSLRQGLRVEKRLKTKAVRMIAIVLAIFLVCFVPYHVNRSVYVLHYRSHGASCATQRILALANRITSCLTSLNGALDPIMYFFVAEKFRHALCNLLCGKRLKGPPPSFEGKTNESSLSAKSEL

SMILES	EC50 [1]	EC50 [2]	EC50 [3]	EC50 [4]	IC50 [5]	Activity [6]	IC50 [7]	inhibition of growth at 100 µM [8]	inhibition at 48 h, 100 µM [9]	EC50 [10]	inhibition of growth at 100 µM [11]
O=C(O)CCC1=C(C(=O)O)Cc2cc(Cl)cc(Cl)c21	16.6 µM	26.9 µM	17.7 µM	26.3 µM	–	–	–	–	–	–	–
O=C(Nc1ccccc1)Oc1cc(OC(=O)Nc2ccccc2)c2c(c1)N(C(c1ccc(F)cc1)c1cccc(Cl)c1O)CC2 (stereo not given)	–	41.9 µM	–	7.67 µM	85.5 µM	Active	85.3 µM	50%	< 5%	59.6 µM	37%
Cn1nnc2c(C(N)=O)ncn2c1=O [TEMOZOLOMIDE]	–	–	–	–	69.9 µM	–	67.8 µM	–	–	–	–
